Laboratory results as given in publication PMC8397297 (ACS Chemical Neuroscience, 2021).

Key:
[1] = target: T1, mGAT3 (Mus musculus, UniProt P31649); experiment: [3H]GABA uptake assay in HEK-293 cells stably expressing mGAT3; assay type: cell-based; conditions: for IC50: [3H]GABA uptake, read-out: pIC50 ± SEM mGAT3 (converted); for remaining [3H]GABA uptake mGAT3: in the presence of 100 μM inhibitor
T1 construct: expressed in transfected cells; host or cells: HEK-293
T1 sequence (P31649 1-602): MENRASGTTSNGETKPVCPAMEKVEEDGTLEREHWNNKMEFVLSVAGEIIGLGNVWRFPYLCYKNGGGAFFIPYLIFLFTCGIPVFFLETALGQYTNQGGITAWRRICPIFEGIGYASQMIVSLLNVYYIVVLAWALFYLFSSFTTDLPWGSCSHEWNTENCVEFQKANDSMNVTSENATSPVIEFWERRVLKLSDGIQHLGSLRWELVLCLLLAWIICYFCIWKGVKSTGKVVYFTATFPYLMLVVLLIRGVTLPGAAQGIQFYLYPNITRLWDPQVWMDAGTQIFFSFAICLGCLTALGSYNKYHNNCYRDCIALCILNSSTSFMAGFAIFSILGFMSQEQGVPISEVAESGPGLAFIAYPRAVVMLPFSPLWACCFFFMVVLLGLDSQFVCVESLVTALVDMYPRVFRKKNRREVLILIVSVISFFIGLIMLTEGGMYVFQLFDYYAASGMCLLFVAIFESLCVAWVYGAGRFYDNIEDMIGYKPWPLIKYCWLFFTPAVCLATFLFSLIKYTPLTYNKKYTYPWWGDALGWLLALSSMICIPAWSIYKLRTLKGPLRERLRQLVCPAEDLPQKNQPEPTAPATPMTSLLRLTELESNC

[2] = target: T2, mGAT4 (Mus musculus, UniProt P31650); experiment: [3H]GABA uptake assay in HEK-293 cells stably expressing mGAT4; assay type: cell-based; conditions: for IC50: [3H]GABA uptake, read-out: pIC50 ± SEM mGAT4 (converted); for remaining [3H]GABA uptake mGAT4: in the presence of 100 μM inhibitor
T2 construct: expressed in transfected cells; host or cells: HEK-293
T2 sequence (P31650 1-627): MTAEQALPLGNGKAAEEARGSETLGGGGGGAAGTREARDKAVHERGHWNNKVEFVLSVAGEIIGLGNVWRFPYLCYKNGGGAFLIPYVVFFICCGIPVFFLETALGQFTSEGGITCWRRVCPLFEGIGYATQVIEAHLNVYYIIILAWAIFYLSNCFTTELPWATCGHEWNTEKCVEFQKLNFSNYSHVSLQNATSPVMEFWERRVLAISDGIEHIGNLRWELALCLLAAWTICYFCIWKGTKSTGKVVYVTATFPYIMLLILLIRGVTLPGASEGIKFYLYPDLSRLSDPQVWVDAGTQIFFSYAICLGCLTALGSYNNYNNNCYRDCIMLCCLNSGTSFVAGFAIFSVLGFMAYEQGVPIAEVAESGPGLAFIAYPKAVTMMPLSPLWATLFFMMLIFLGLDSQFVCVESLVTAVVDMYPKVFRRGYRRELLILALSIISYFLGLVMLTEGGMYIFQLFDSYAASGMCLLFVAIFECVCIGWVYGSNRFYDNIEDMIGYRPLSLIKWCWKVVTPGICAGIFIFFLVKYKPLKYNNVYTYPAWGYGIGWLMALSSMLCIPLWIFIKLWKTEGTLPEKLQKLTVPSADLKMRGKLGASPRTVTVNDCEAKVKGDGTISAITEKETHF

[3] = target: T3, mGAT1 (Mus musculus, UniProt P31648); experiment: competitive MS binding assay with NO711 as unlabeled marker (LC-ESI-MS/MS); conditions: for remaining NO711 binding mGAT1: in the presence of 100 μM inhibitor
T3 construct: expressed in transfected cells; host or cells: HEK-293
Description: Specific binding affinity toward mGAT1 was determined via a competitive mass spectrometry (MS) binding assay quantified by liquid chromatography–electrospray ionization tandem mass spectrometry (LC–ESI-MS/MS) with NO711 as an unlabeled marker.[50]
MS binding assays for mGAT1 were performed as described earlier.[50] Inhibition of mGAT1 binding by the synthesized compounds was determined in MS binding assays at a screening concentration of 100 μM and analyzed by LC–ESI-MS/MS.

[4] = target: T3, mGAT1; experiment: [3H]GABA uptake assay in HEK-293 cells stably expressing mGAT1; assay type: cell-based; conditions: for IC50: [3H]GABA uptake, read-out: pIC50 ± SEM mGAT1 (converted); for remaining [3H]GABA uptake mGAT1: in the presence of 100 μM inhibitor
[5] = target: T4, mGAT2 (Mus musculus, UniProt P31651); experiment: [3H]GABA uptake assay in HEK-293 cells stably expressing mGAT2; assay type: cell-based; conditions: for IC50: [3H]GABA uptake, read-out: pIC50 ± SEM mGAT2 (converted); for remaining [3H]GABA uptake mGAT2: in the presence of 100 μM inhibitor
T4 construct: expressed in transfected cells; host or cells: HEK-293
T4 sequence (P31651 1-614): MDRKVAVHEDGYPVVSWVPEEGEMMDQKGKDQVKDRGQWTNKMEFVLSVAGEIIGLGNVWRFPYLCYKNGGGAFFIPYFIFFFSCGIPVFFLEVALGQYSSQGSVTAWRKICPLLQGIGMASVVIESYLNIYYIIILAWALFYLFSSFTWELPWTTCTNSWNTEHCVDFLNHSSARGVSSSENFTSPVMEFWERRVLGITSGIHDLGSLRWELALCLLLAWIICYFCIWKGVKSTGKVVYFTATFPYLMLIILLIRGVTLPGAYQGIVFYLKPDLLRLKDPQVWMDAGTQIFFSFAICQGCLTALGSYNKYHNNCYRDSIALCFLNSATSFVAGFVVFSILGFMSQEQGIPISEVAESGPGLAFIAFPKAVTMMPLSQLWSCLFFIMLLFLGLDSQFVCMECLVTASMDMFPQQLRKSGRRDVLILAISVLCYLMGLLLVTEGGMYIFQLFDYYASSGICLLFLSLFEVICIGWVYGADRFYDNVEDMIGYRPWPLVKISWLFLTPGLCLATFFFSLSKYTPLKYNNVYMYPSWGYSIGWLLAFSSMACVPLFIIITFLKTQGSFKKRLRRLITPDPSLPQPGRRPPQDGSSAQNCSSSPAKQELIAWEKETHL

Compound | IC50 [1] | IC50 [2] | Ki ([3]; MS binding assay, read-out: pKi ± SEM mGAT1 (converted)) | IC50 [4] | IC50 [5] | remaining NO711 binding mGAT1 [3] | remaining [3H]GABA uptake mGAT1 [4] | remaining [3H]GABA uptake mGAT3 [1] | remaining [3H]GABA uptake mGAT4 [2] | remaining [3H]GABA uptake mGAT2 [5]
Cc1ccc(CNC(=O)C(CO)N(C)CCC=C2c3ccccc3C=Cc3ccccc32)cc1 (centres unmarked) [Compound 55e, 2-((3-(5H-Dibenzo[a,d][7]annulen-5-ylidene)propyl)(methyl)amino)-N-(4-methylbenzyl)-3-hydroxypropanamide] | 15.8 µM | 13.2 µM | 29.5 µM | 26.9 µM | 21.4 µM | – | – | – | – | –
CN(CCC=C1c2ccccc2CCc2ccccc21)C(CO)C(=O)NCc1ccccc1Cl (centres unmarked) [Compound 56b, N-(2-Chlorobenzyl)-2-((3-(10.11-dihydro-5H-dibenzo[a,d][7]annulen-5-ylidene)propyl)(methyl)amino)-3-hydroxypropanamide] | 10.5 µM | 27.5 µM | – | – | 25.7 µM | 100 μM: 86% | 100 μM: 50% | – | – | –
CN(CCC=C1c2ccccc2CCc2ccccc21)C(CO)C(=O)NCc1ccc(Cl)cc1 (centres unmarked) [Compound 56c, N-(4-Chlorobenzyl)-2-((3-(10,11-dihydro-5H-dibenzo[a,d][7]annulen-5-ylidene)propyl)(methyl)amino)-3-hydroxypropanamide] | 14.5 µM | 10.2 µM | – | 61.7 µM | 29.5 µM | 100 μM: 87% | – | – | – | –
CN(CCC=C1c2ccccc2CCc2ccccc21)C(CO)C(=O)NCc1ccc(F)cc1 (centres unmarked) [Compound 56d, N-(4-Fluorobenzyl)-2-((3-(10,11-dihydro-5H-dibenzo[a,d][7]annulen-5-ylidene)propyl)(methyl)amino)-3-hydroxypropanamide] | 12.9 µM | 12.3 µM | – | 17.8 µM | 21.4 µM | 100 μM: 96% | – | – | – | –
O=C(NCc1ccccc1)C(CO)N1CCC(=C2c3ccccc3-c3ccccc32)CC1 (centres unmarked) [Compound 57, N-Benzyl-2-[4-(9H-fluoren-9-ylidene)piperidin-1-yl]-3-hydroxypropanamide] | 69.2 µM | 36.3 µM | – | 24.5 µM | 17.8 µM | 100 μM: 84% | – | – | – | –
O=C(NCc1ccccc1)C(CO)N1CCC(=C2c3ccccc3CCc3ccccc32)CC1 (centres unmarked) [Compound 58, N-Benzyl-2-(4-(10,11-dihydro-5H-dibenzo[a,d][7]annulen-5-ylidene)piperidin-1-yl)-3-hydroxypropanamide] | 20.9 µM | 23.4 µM | – | 35.5 µM | 22.4 µM | 100 μM: 83% | – | – | – | –
CN(CCON=C(c1ccccc1)c1ccccc1)C(CO)C(=O)NCc1ccccc1 (centres unmarked) [Compound 59a, N-Benzyl-2-((2-(((diphenylmethylene)amino)oxy)ethyl)(methyl)amino)-3-hydroxypropanamide] | 58.9 µM | 26.9 µM | – | 22.9 µM | 22.9 µM | 100 μM: 80% | – | – | – | –
CN(CCON=C(c1ccccc1)c1ccccc1)C(CO)C(=O)NCc1ccccc1Cl (centres unmarked) [Compound 59b] | 15.8 µM | 12.9 µM | – | 44.7 µM | 12.9 µM | 100 μM: 92% | – | – | – | –
CN(CCON=C(c1ccccc1)c1ccccc1)C(CO)C(=O)NCc1ccc(F)cc1 (centres unmarked) [Compound 59c, 2-((2-(((Diphenylmethylene)amino)oxy)ethyl)(methyl)amino)-N-(4-fluorobenzyl)-3-hydroxypropanamide] | 19.5 µM | 16.6 µM | – | 26.3 µM | 17 µM | 100 μM: 84% | – | – | – | –
CCC(C(=O)NCc1ccccc1)N1CCC(=C(c2sccc2C)c2sccc2C)CC1 (centres unmarked) [Compound 64a, N-Benzyl-2-(4-(bis(3-methylthiophen-2-yl)methylene)piperidin-1-yl)butanamide] | – | – | – | 7.08 µM | – | 100 μM: 81% | – | 100 μM: 69% | 100 μM: 77% | 100 μM: 108%
CCC(C(=O)NCc1ccccc1Cl)N1CCC(=C(c2sccc2C)c2sccc2C)CC1 (centres unmarked) [Compound 64b, 2-(4-(Bis(3-methylthiophen-2-yl)methylene)piperidin-1-yl)-N-(2-chlorobenzyl)butanamide] | – | – | – | – | – | 100 μM: 108% | 100 μM: 66% | 100 μM: 61% | 100 μM: 64% | 100 μM: 101%
CC(C(=O)NCc1ccccc1)N(C)CCON=C(c1ccccc1)c1ccccc1 (centres unmarked) [Compound 65, N-Benzyl-2-((2-(((diphenylmethylene)amino)oxy)ethyl)(methyl)amino)propanamide] | 13.8 µM | 26.3 µM | – | 58.9 µM | 26.3 µM | 100 μM: 104% | – | – | – | –
CCC(C(=O)NCc1ccccc1)N(C)CCON=C(c1ccccc1)c1ccccc1 (centres unmarked) [Compound 66a, N-Benzyl-2-((2-(((diphenylmethylene)amino)oxy)ethyl)(methyl)amino)butanamide] | 16.6 µM | 13.8 µM | – | – | – | 100 μM: 104% | 100 μM: 50% | – | – | 100 μM: 55%
CCC(C(=O)NCc1ccccc1Cl)N(C)CCON=C(c1ccccc1)c1ccccc1 (centres unmarked) [Compound 66b, N-(2-Chlorobenzyl)-2-((2-(((diphenylmethylene)amino)oxy)ethyl)(methyl)amino)butanamide] | 45.7 µM | – | – | – | – | 100 μM: 107% | 100 μM: 69% | – | 100 μM: 50% | 100 μM: 59%
Cc1ccsc1C(=CCCN(C)C(C)C(=O)NCc1ccccc1)c1sccc1C (centres unmarked) [Compound 67, N-Benzyl-2-((4,4-bis(3-methylthiophen-2-yl)but-3-en-1-yl)(methyl)amino)propanamide] | 13.5 µM | 12 µM | – | 24.5 µM | 13.2 µM | 100 μM: 83% | – | – | – | –
CCC(C(=O)NCc1ccccc1)N(C)CCC=C(c1sccc1C)c1sccc1C (centres unmarked) [Compound 68, N-Benzyl-2-((4,4-bis(3-methylthiophen-2-yl)but-3-en-1-yl)(methyl)amino)butanamide] | 30.9 µM | 12.9 µM | – | 26.9 µM | 39.8 µM | 100 μM: 81% | – | – | – | –
